Assay results: patent publication US6583179B2, “Substituted aminoalkylamide derivatives as antagonists of follicle stimulating hormone” (Ortho-McNeil Pharmaceutical, Inc., priority 1999, dated 2003)

Legend:
[1] = test system: Rat Granulosa Cell; assay: Rat granulosa cell FSH-stimulated cAMP production; assay type: cell-based; conditions: inhibition of cAMP produced by EC70 dose of FSH (1.4 nM), maximum concentration 50 μM
Experimental: Insulin, diethylstilbesterol, androstenedione, forskolin and DMSO were purchased from Sigma (St. Louis, Mo.). Fungizone, penicillin/streptomycin, charcoal-treated heat inactivated fetal bovine serum (CT-HI-FBS) and Dulbecco's Modified Eagle Medium:Hams F12 medium containing 15 mM Hepes and L-glutamine (DMEM:F12), were purchased from GIBCO BRL (Grand Island, N.Y.).
Ovine FSH (NIADDK-oFSH-17; FSH potency=20 NIH-FSH-S1 U/mg; LH contamination=0.04 times NIH-LH-S1) was received from Ogden Bioservices Corporation, Rockville, Md. Human FSH (Fertinex), was purchased from Serono Pharmaceutical (Framingham, Mass.). Human chorionic gonadotropin (hCG) was purchased from Sigma (St Louis, Mo.).
Immature intact female rats (Wistar-derived strain; 21-23 days old) were implanted with a single pellet (Innovative Research of America, Sarasota, Fla.) containing 2.5 mg diethylstilbesterol (DES) for 3 days. On the third day, the animals were sacrificed, the ovaries were removed, and the granulosa cells were isolated essentially as described in Haynes-Johnson et al., Biol. Reprod., 61 (1), 147-153, (1999). Granulosa cells were plated at a density of 300,000 cells per ml with 0.2 ml added to each well of 96 well culture dishes (Corning, N.Y.). Cultures were incubated at 37° C. in a humidified incubator (95% air, 5% CO2) overnight (18 hours).
Androstenedione (100,000X) was prepared by dissolving the steroid in 100% ethanol, and was subsequently diluted to a final concentration of 10^−7M containing 0.1% ethanol in assay media. The assay media was serum-free, DES-free, insulin-free media, prepared by adding 5 mL pen-strep,1.5 mL fungizone and 5 μL androstenedione to 493.5 mL DMEM F-12 media.
(§1) Test compounds were solubilized in 30% dimethyl sulfoxide (DMSO) at a concentration of 10 mM before diluting to appropriate concentrations in assay medium. The final DMSO concentration in the treated cells and in the control cells was 0.75%.
Test plates containing the granulosa cells were preincubated for 18 hours at 37° C. with 95% air, 5% CO2, 100% humidity. The spent media was removed and 50 μl assay media (DMEM:F12) containing 2 mM IBMX (3-isobutyl-1-methyl-xanthine) was added to the cells. Compounds (25 μl) in the appropriate concentration were added followed 5 minutes later by an EC70 dose of FSH (25 μl; 50 ng/ml; 1.4 nM). After 30 minutes @ 22.5° C. (room temperature) the reaction was terminated by addition of 25 μL 0.5 N hydrochloric acid to each well. The amount of cAMP produced was measured by radioimmunoassay in a FlashPlate (DuPont, Boston, Mass.). To each flash plate 60 μL flash plate buffer was added followed by 40 μL acidified cell sample or cAMP standard, followed with the addition of 100 μl ^125l-cAMP trace. The FlashPlates were sealed, incubated overnight @ room temperature, and counted in a Packard TopCount (Packard Instrument Co., Meriden, Conn.). The cAMP radioimmunoassay results were calculated using DPM conversion and log-logit transformation of % binding (Excel program).

[2] = target: T1, human FSH receptor (Homo sapiens, UniProt P23945); assay: hFSHR CHO cAMP assay (rhFSHR-cLUC cells, FSH-stimulated cAMP, radioimmunoassay); assay type: cell-based; conditions: inhibition of cAMP produced by EC70 dose of FSH (4.85 nM); maximum concentration 50 μM
T1 construct: expressed in transfected cells; host or cells: Chinese Hamster Ovary cells (K-1; ATCC), line rhFSHR-cLUC
T1 sequence (P23945 18-695): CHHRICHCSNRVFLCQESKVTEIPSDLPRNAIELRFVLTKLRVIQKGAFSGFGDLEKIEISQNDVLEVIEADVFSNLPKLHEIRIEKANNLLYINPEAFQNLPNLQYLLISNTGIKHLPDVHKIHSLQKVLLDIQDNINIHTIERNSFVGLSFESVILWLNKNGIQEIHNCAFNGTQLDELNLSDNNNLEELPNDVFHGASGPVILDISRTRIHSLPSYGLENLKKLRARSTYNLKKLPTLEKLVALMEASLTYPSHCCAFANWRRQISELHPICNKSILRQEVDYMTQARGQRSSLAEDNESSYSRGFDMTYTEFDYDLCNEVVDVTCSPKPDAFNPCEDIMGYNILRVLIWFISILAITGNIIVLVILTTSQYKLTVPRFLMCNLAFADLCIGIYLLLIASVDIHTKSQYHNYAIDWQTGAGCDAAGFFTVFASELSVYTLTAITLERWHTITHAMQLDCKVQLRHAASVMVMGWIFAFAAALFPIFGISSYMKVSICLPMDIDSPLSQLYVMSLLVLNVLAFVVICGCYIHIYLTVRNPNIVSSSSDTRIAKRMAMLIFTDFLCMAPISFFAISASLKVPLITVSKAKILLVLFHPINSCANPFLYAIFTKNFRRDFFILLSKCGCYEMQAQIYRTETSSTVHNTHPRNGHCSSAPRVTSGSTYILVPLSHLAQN
Excerpt: Minimum Essential Medium-Alpha (MEM-alpha), fetal bovine serum (FBS), penicillin, streptomycin, geneticin, trypsin-EDTA, Hanks' Balanced Salt Solution (no Calcium chloride, Magnesium chloride, Magnesium sulfate, or phenol red; Ca-Mg free HBSS) were purchased from Gibco BRL (Gaithersburg, Md.). The cells used for the FSH bioassay (rhFSHR-cLUC) were Chinese Hamster Ovary cells (K-1; ATCC) stably transformed with human FSH receptor (pSVK-FSHr) and a cAMP luciferase reporter gene (responsive CGα-180LUC). Follicle Stimulating Hormone (Metrodin; Fertinex) was purchased from Serono, Ltd. (Norwell, Mass.).
The rhFSHR-cLUC cell cultures were maintained in MEM-Alpha supplemented with 10% heat-inactivated FBS (HIFBS), 100 U/ml penicillin, 100 μg/mL streptomycin, and included 0.1 g/L geneticin for stable cell selection.
Forty-eight hours after the cells were plated in sterile 96-well culture plates (Corning, Corning, N.Y.) the spent media was removed and 50 μl assay media (modified growth media with 2% HIFBS) containing 2 mM IBMX (3-isobutyl-1-methyl-xanthine) was added to the cells. Compounds (25 μl) in the appropriate concentration were added followed 5 minutes later by an EC70 dose of FSH (25 μl; 160 ng/ml; 4.85 nM). After 10 minutes @ 22.5° C. (room temperature) the reaction was terminated by addition of 25 μL 0.5 N hydrochloric acid to each well. The amount of cAMP produced was measured by radioimmunoassay in a FlashPlate (DuPont, Boston, Mass.). To each flash plate 60 μL flash plate buffer was added followed by 40 μL acidified cell sample or cAMP standard, followed with the addition of 100 μl ^125l-cAMP trace. The FlashPlates were sealed, incubated overnight @ room temperature, and counted in a Packard TopCount (Packard Instrument Co., Meriden, Conn.). The cAMP radioimmunoassay results were calculated using DPM conversion and log-logit transformation of % binding (Excel program).
as §1
For individual experiments, a set of samples were tested including a vehicle control (assay buffer), a reference compound (hFSH) at a range of concentrations designed to elicit a minimal to maximal response, and several concentrations of test compounds together with an EC70 concentration of standard (hFSH challenge). Each compound was performed in duplicates for the primary evaluation and quadruplicates for the dose-ranging experiments. The cAMP radioimmunoassay raw data (pmol) were calculated to provide average pmol cAMP produced/ml and the percent inhibition was calculated as shown below.
% Inh=[1−(Avg.pmoltest compound+standard)/(Avg.pmolstandard)]×100
EC50 values were calculated from an analysis of the concentration-inhibition data using a linear analysis of the data transformed to a log-logit format.

Row | Structure (SMILES) | EC50 [1] | EC50 [2]
1 | COc1ccccc1CCN(CC(=O)NCc1ccc(CN)cc1)S(=O)(=O)c1ccc(-c2cccc(F)c2)cc1 [Compound 14] | 1560 nM | 740 nM
2 | COc1cccc(-c2ccc(S(=O)(=O)N(CCc3ccccc3OC)CC(=O)NCc3ccc(CN)cc3)cc2)c1 [Compound 16] | 510 nM | 1130 nM
3 | COc1cccc(CN(CC(=O)NCC2CCC(CN)CC2)S(=O)(=O)c2ccc(-c3cccc(OC)c3)cc2)c1 (stereo not shown) [Compound 24] | 1070 nM | 2330 nM
4 | COc1ccccc1CCN(CC(=O)NCC1CCC(CN)CC1)S(=O)(=O)c1ccc(-c2cccc(C(F)(F)F)c2)cc1 (stereo not shown) [Compound 29] | 2060 nM | 3090 nM
5 | COc1ccccc1CCN(CC(=O)NCC1CCC(CN)CC1)S(=O)(=O)c1ccc(-c2ccccc2Cl)cc1 (stereo not shown) [Compound 31] | 1970 nM | 910 nM
6 | COc1ccccc1CCN(CC(=O)NCC1CCC(CN)CC1)S(=O)(=O)c1ccc(-c2ccccc2C)cc1 (stereo not shown) [Compound 32] | 160 nM | 310 nM
7 | COc1ccccc1CCN(CC(=O)NCC1CCC(CN)CC1)S(=O)(=O)c1ccc(-c2ccccc2OC)cc1 (stereo not shown) [Compound 33] | 180 nM | 420 nM

The remaining lines, values ahead:

Row | EC50 [1] | EC50 [2] | Structure (SMILES)
8 | 1450 nM | 4950 nM | COc1ccccc1CN(CC(=O)NCC1CCC(CN)CC1)S(=O)(=O)c1ccc(-c2cnc(SC)nc2)s1 (stereo not shown) [Compound 73]
9 | 8910 nM | 34500 nM | COc1ccccc1CCN(CC(=O)NC1CCC(N)CC1)S(=O)(=O)c1ccc(-c2ccccc2C)cc1 (stereo not shown) [Compound 94]
10 | 8970 nM | 9780 nM | COc1ccccc1CCN(CC(=O)NCc1ccc(CN)cc1)S(=O)(=O)c1ccc(Cl)s1 [Compound 114]
11 | 60 nM | 80 nM | C[C@@H](CN(CC(=O)NCc1ccc(CN)cc1)S(=O)(=O)c1ccc(-c2cccc(F)c2)cc1)c1ccccc1 [Compound 203]
12 | 40 nM | 60 nM | C[C@H](CN(CC(=O)NCc1ccc(CN)cc1)S(=O)(=O)c1ccc(-c2ccccc2Cl)cc1)c1ccccc1 [Compound 208]
13 | 600 nM | 550 nM | COc1ccccc1CCN(CC(=O)NCc1ccc(CN)cc1)S(=O)(=O)c1ccc(-c2ccccc2C)s1 [Compound 272]
14 | 80 nM | 270 nM | Cc1ccccc1-c1ccc(S(=O)(=O)N(CC(=O)NCC2CCCC(CN)C2)C[C@H](C)c2ccccc2)cc1 (stereo partly shown) [Compound 384]
